Assay results: US12011455B2, “Enhancing plasmin activity to prevent soft tissue calcification” (Vanderbilt University, priority 2016, dated 2024)

Test system: CTX-injured skeletal muscle of mice
Experiment: Cardiotoxin-induced muscle injury model, radiographic/μCT soft tissue calcification and HO
Type: in vivo, mouse
Conditions: Plg+/− mice, 7 DPI, vs control
Procedure: Cardiotoxin-Induced Muscle Injury Model: Skeletal muscle injury was induced by an intramuscular injection of 40 μL of 10 nM Cardiotoxin (CTX, Accurate Chemical and Scientific Corp; Westbury, NY) in the posterior compartments of the lower extremities of male C57/B6 mice. Briefly, following anesthetization with Isoflurane, CTX was injected into the lateral aspect of the posterior compartment using a 28.5 G, 0.5 cc insulin syringe. The CTX induces massive local myocyte depolarization, leading to myocyte death. However, muscle resident stem cells are unaffected by the CTX, thereby allowing for muscle regeneration following injury. […]
Radiographic Analysis and Quantification of HO: Quantification was performed as described. […] These images underwent post-image standardization and were quantified with the previously validated heterotopic ossification scoring scale. […] A blinded reviewer assessed all scores (a score of 1=0-24%, a score of 2=25%-49%, a score of 3=50%-74%, and a score of 4=>75% of the lower extremity containing radiographically evident HO).
Ex vivo μCT Imaging and Quantification of HO: μCT mages were acquired (μCT40, Scanco Medical AG, Bassersdorf, Switzerland) following specimen harvest of injured hindlimbs at 55 kVp, 145 uA, 200 ms integration, 500 projections per 180° rotation, with a 20 μm isotropic voxel size. […] Mineral volume was then calculated using the Scanco evaluation software.

Fbg^ASO: Fibrinogen antisense oligonucleotide GCTTTGATCAGTTCTTTGGC; phosphorothioate backbone, 2′ O methoxyethyl wings (all phosphorothioate, sugars by position and methylation of C not given here; 2'-O-methoxyethyl wings)
soft tissue calcification after CTX injury (μCT/radiographs): failed to prevent soft tissue calcification
soft tissue calcification after CTX injury (μCT/radiographs) (listed as fibrinogen^ASO): marked soft tissue calcification formation
